Counter-ions that a name gives are not always drawn.
What was measured:
[1] = target: KCNH2 (hERG) mutant, Kv11.1 potassium ion channel (Homo sapiens, UniProt Q12809, form not given); assay: in vitro
[2] = target: KCNH2 (hERG) mutant, Kv11.1 potassium ion channel (Homo sapiens, UniProt Q12809); conditions: KCNH2 mutant-PK cells, overnight, FIG. 5 curve fit
Experimental: A single-point mutation is introduced in KCNH2. The second fusion protein used comprises plasma membrane localized protein and the second fragment of complementation assay. The second fragment of complementation assay was localized to the plasma membrane by fusing it to PH domain of phospholipase C gamma.
In this experiment, cells expressing the KCNH2 mutant fused to the first fragment of complementation assay (ProLink™ peptide) and the plasma membrane localized EA were treated with a variety of compounds that bind to the ion channel.
Binding of ligand leads to stabilization (“rescue”) and transport of the protein to the membrane.—PLC(PH)-EA anchors to the membrane. […] The assay is run overnight.

[3] = target: T1, AVPR2 (Arginine vasopressin receptor 2) (Homo sapiens, UniProt P30518); assay: Trafficking of AVPR2 target peptide by complementation; assay type: cell-based
T1 construct: expressed in transfected cells
Excerpt: (§1) In a model of retinitis, the rhodopsin GPCR was tagged with an ED, and its translocation was studied in response to addition of 9-cis retinol. […] Also, AVPR2 (Arginine vasopressin receptor 2), a GPCR for which antagonists are used therapeutically, was studied with SR49059, a small molecule vasopressin V1a receptor antagonist. […] More than 200 mutations in the AVPR2 gene have been identified in people with nephrogenic diabetes insipidus. Most of these mutations cause the vasopressin V2 receptor protein to be misfolded into an incorrect 3-dimensional shape. Thus the present assay finds particular applicability in identifying compounds that bind to the AVPR2 gene product in the case of a misfolding mutation which occurs in humans.

rhodopsin GPCR = assay: Translocation of ED-tagged rhodopsin GPCR by complementation (model of retinitis); assay type: cell-based
Excerpt: as §1

ADRB2 W158A = assay: Arrestin activity assay; assay type: cell-based; conditions: compound 10 μM; signal of test well divided by signal of buffer-only control wells
Experimental: (§2) The cells were lysed and the complemented activity was measured using a chemiluminescent b-galactosidase substrate. The values of each well containing a test compound was divided by the signal obtained from the control wells that received only buffer.

ADRB2 = ADRB2 (Homo sapiens, UniProt P07550); assay: cAMP activity assay (Gs ADRB2); assay type: cell-based; conditions: compound 10 μM; signal of test well divided by signal of buffer-only control wells
Experimental: as §2

ADRB2 W158A mutant = target: T2, ADRB2 W158A mutant (Homo sapiens, UniProt P07550, W158A); assay: Trafficking assay: β-galactosidase enzyme fragment complementation, ADRB2 W158A-ProLink with endosome-localized EA; assay type: cell-based; conditions: compound 10 μM; signal of test well divided by signal of buffer-only control wells
T2 construct: expressed in transfected cells
Excerpt: The ADRB2 is a G-protein coupled receptor containing seven transmembrane regions. It was been shown that mutation of W158 to alanine can cause retention of the protein in the endoplasmic reticulum. Contacting the receptor with small molecules that bind to ADRB2 results in enhanced movement of the protein to the plasma membrane and endosomal compartments.
The first fusion protein used comprises the target peptide (ADRB2W158A-PK) and the first fragment of complementation assay. This construct includes the W158 to alanine mutation. The second fusion protein used comprises endosome localized protein and the second fragment of complementation assay.
as §2

T1 sequence (P30518 whole entry): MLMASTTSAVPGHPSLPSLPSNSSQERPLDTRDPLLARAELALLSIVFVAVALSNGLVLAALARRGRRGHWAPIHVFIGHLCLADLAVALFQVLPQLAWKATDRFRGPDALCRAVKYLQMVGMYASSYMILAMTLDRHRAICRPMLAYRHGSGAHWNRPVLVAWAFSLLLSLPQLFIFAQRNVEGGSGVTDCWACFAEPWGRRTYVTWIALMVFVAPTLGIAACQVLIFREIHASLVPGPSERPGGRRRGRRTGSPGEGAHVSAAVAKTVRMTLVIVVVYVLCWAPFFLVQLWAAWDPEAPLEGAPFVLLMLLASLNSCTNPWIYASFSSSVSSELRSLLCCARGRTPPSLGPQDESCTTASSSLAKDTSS

| Compound | Arrestin W158A S/B (ADRB2 W158A) | cAMP Gs ADRB2 S/B (ADRB2) | Trafficking 5-EA ADRB2 S/B (ADRB2 W158A mutant) | further results |
| --- | --- | --- | --- | --- |
| O=C(CCCN1CCC(O)(c2ccc(Cl)cc2)CC1)c1ccc(F)cc1 [Haloperidol] |  |  |  | EC50 [1]: 15.3 mM; BOTTOM [2]: 7500; HILLSLOPE [2]: 0.5120; LOGEC50 [2]: −1.815; TOP [2]: 537564 |
| COc1ccc(S(=O)(=O)N2c3ccc(Cl)cc3[C@](O)(c3ccccc3Cl)[C@@H]2C(=O)N2CCC[C@H]2C(N)=O)cc1OC [SR49059] |  |  |  | dose response of AVPR2 trafficking to compound (result in words) [3]: dose response curve was obtained |
| CC1=C(/C=C/C(C)=C\C=C\C(C)=C\CO)C(C)(C)CCC1 [9-cis retinol] |  |  |  | translocation of ED-tagged rhodopsin in response to compound (result in words) (rhodopsin GPCR): dose-response curve showed sensitive results |
| CC(C)NCC(O)COc1cccc2ccccc12 (stereo not drawn) [Propanolol HCl] | 0.9 |  |  |  |
| CC(C)(C)NC[C@H](O)COc1nsnc1N1CCOCC1.O=C(O)/C=C\C(=O)O [(S)-Timolol maleate] | 0.9 |  |  |  |
| CCC(NC(C)C)C(O)c1ccc(O)c2[nH]c(=O)ccc12 (stereo not drawn) [Procaterol HCl] | 21.3 | 15.2 | 78.2 |  |
| COc1ccccc1N1CCN(CC(O)COc2cccc3ccccc23)CC1.Cl.Cl (stereo not drawn) [Naftopidil 2HCl] | 1.0 | 1.0 | 6.8 |  |
| CC(C)(C)NCC(O)COc1cccc2[nH]c(C#N)cc12.CC(C)(C)NCC(O)COc1cccc2[nH]c(C#N)cc12.O=C(O)/C=C/C(=O)O (stereo not drawn) [(—)-Cyanopindolol hemifumarate] | 1.0 | 1.8 | 17.1 |  |

From patent US9388449B2, “Monitoring protein trafficking using beta-galactosidase reporter fragment complementation” (DiscoveRx Corporation, priority 2011, dated 2016)
